For experiment [1], the system named is N1MA1a (DNA, aptamer) GACGACACATAATTGTTGATCCACTGTTTATTAGGTGTCGTC
The experiment in a line: ITC. The note with it: 500 mM Na+, 20 mM Mg2+; 50 mM Tris, pH 7.6, 25 °C; abstract prints 0.75 ± 0.04.

The test system of experiment [2] is N1MA2a (DNA, aptamer) GACGACAAGGTTGCTGGTCTGGTACAGAGATAGTTCGTCGTC
The experiment in a line: ITC. Conditions: 500 mM Na+, 20 mM Mg2+; 50 mM Tris, pH 7.6, 25 °C.

The subject of experiment [3] is AdeApt (classical adenosine aptamer) (DNA, aptamer) ACCTGGGGGAGTATTGCGGAGGAAGGT
The experiment is described as follows: ThT fluorescence displacement. Conditions: 500 mM Na+, 20 mM Mg2+; Kd could not be fitted; 50 mM Tris, pH 7.6; ThT tracer.

Broadly, the Kd is the free concentration of one partner at which half of the binding sites on the other are occupied at equilibrium, for simple one-to-one binding. A lower Kd goes with higher affinity. On to `Cn1cnc2c(ncn2[C@@H]2O[C@H](CO)[C@@H](O)[C@H]2O)c1=N`, for which the results for the Kd in experiment [1] and in experiment [2] were 0.75 ± 0.07 µM and 7.3 ± 7.5 µM, respectively. Further, in experiment [3], the binding result is “weak”.

(Values after publication PMC12080312 (2025).)
